The text below walks through data of patent US20100056524A1, “Compound” (priority 2008, published 2010).

What all share (type): biochemical
The target in one test is T1, PKC zeta (Homo sapiens, UniProt Q05513).
T1 construct: All protein kinases were of human origin and encoded full length proteins, unless indicated otherwise; made in house
T1 sequence (Q05513 1-592): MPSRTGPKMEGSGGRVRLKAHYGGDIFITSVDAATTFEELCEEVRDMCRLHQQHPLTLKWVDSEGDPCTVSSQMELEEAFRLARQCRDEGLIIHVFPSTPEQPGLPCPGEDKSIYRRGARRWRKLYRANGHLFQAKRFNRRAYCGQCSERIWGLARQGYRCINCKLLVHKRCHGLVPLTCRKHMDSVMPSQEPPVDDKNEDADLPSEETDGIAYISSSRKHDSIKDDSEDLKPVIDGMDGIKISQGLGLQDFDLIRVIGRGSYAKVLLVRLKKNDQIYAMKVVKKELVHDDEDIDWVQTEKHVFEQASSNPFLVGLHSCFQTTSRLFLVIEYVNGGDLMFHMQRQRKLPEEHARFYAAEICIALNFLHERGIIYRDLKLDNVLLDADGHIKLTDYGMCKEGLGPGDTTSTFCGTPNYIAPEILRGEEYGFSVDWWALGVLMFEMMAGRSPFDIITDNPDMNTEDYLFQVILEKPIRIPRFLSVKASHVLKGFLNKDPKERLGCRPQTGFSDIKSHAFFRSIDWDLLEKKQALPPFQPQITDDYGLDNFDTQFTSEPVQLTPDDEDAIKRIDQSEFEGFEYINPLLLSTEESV
The test can be described thus: PKC zeta protein kinase assay. As to conditions: for remaining activity at 10 µM: 10 μM compound; for residual kinase activity PKC zeta: 1 μm compound; for remaining activity at 1 µM: 1 μM compound. From the text:
(§1) All protein kinases were of human origin and encoded full length proteins, unless indicated otherwise. They were either expressed as glutathione S-transferase (GST) fusion proteins in Escherichia Coli or as hexahistidine (His6)-tagged proteins in insect Sf21 cells. GST fusion proteins were purified by affinity chromatography on glutathione-Sepharose, and His6-tagged proteins on nickel/nitriloacetate-agarose. The procedures for expressing some of the protein kinases used herein have been detailed previously.^8,9 The following sections outline the DNA vectors synthesised and the procedures used to express and purifying protein kinases that have not been reported previously.
(§2) All assays (25.5 μl) were carried out at room temperature (21° C.) and were linear with respect to time and enzyme concentration under the conditions used. Assays were performed for 30 min using Multidrop Micro reagent dispensers (Thermo Electron Corporation, Waltham, Mass. 02454, USA) in a 96-well format. The concentration of magnesium acetate in the assays was 10 mM and the [γ-33P] ATP (800 cpm/pmol) was used at 5, 20 or 50 μM as indicated, in order to be at or below the Km for ATP for each enzyme. Protein kinases assayed at 5 μM ATP were: —ERK1, ERK8, PKBα, MARK3, Aurora C. Protein kinases assayed at 20 μM ATP were: —JNK1, PDK1, CHK1, CHK2, CDK2 and Aurora B. Protein kinases assayed at 50 μM ATP were: —MNK2, IKKepsilon and TBK1.
(§3) The assays were initiated with MgATP, stopped by addition of 5 μl of 0.5 M orthophosphoric acid and spotted on to P81 filterplates using a unifilter harvester (PerkinElmer, Boston, Mass. 02118, USA). The IC50 values of inhibitors were determined after carrying out assays at 10 different concentrations of each compound.
(§4) Unless stated otherwise, enzymes were diluted in 50 mM Tris/HCl pH 7.5, 0.1 mM EGTA, 1 mg/ml BSA, 0.1% (v/v) 2-mercaptoethanol and assayed in 50 mM Tris/HCl pH 7.5, 0.1 mM EGTA, 0.1% (v/v) 2-mercaptoethanol.

The target of the next test is T2, EPH A2 (Homo sapiens, UniProt P29317).
T2 construct: All protein kinases were of human origin and encoded full length proteins, unless indicated otherwise; made in house
T2 sequence (P29317 591-976 limits assumed): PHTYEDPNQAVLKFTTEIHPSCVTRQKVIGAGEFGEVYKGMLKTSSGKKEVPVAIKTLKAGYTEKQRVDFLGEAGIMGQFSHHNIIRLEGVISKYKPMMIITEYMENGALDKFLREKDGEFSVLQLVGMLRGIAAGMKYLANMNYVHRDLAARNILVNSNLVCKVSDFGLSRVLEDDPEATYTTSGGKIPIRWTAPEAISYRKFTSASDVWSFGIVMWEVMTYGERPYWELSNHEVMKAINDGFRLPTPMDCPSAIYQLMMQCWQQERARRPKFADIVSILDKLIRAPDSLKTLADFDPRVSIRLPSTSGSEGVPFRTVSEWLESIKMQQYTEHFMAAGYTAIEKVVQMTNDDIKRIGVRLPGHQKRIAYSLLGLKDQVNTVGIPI
Kind of test: EPH A2 protein kinase assay. The following applies: for remaining activity at 10 µM: 10 μM compound; for residual kinase activity EPH A2: 1 μm compound; for remaining activity at 1 µM: 1 μM compound.
Source text: as §1, §2, §3, §4

The target of another test is T3, PKD1 (Homo sapiens, UniProt Q15139).
T3 construct: All protein kinases were of human origin and encoded full length proteins, unless indicated otherwise; made in house
T3 sequence (Q15139 1-912): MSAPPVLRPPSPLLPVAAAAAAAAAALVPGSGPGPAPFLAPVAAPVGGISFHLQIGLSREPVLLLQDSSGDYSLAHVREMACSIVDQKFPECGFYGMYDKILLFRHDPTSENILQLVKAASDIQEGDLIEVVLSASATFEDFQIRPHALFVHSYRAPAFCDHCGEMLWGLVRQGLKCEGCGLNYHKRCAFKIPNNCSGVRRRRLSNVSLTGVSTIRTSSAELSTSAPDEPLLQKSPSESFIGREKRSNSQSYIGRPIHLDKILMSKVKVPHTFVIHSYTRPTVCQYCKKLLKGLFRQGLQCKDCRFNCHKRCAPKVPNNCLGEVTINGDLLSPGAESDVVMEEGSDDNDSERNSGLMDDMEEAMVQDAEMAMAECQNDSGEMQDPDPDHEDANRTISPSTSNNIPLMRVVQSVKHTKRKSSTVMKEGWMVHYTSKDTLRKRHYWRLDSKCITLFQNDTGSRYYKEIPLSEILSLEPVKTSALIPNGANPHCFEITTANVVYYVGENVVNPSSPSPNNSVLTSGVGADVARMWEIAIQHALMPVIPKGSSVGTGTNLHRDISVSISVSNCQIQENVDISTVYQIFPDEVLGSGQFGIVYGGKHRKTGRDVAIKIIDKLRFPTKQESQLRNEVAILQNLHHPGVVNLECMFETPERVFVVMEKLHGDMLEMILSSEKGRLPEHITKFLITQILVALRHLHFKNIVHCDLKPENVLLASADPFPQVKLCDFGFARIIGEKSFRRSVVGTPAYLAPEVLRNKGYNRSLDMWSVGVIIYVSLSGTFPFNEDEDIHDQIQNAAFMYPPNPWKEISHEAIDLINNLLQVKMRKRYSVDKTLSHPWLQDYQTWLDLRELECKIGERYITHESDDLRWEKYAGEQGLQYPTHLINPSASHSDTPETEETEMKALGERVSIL
The test can be described thus: PKD1 protein kinase assay. The following applies: for remaining activity at 10 µM: 10 μM compound; for residual kinase activity PKD1: 1 μm compound; for remaining activity at 1 µM: 1 μM compound.
Source text: as §1, §2, §3, §4

Where [1] appears, read: read-out: residual kinase activity PKC zeta.
[2] abbreviates: read-out: residual kinase activity EPH A2.
Where [3] appears, read: read-out: residual kinase activity PKD1.
The mark [4] stands for this setting: PKC zeta, read-out: residual kinase activity.
Setting [5] is: EPH A2, read-out: residual kinase activity.
Where [6] appears, read: PKD1, read-out: residual kinase activity.

Counter-ions that a name gives are not always drawn. Like-named read-outs stand apart in the source and are kept apart here.

`O=C(NCCCNc1nc(Nc2cccc(F)c2)ncc1Br)C1CCC1` [Compound A, cyclobutanecarboxylic acid {3-[5-bromo-2-(3-fluoro-phenylamino)-pyrimidin-4-ylamino]-propyl}-amide, reference compound]: the remaining activity at 10 µM on PKC zeta (setting [1]) amounted to 42%; at EPH A2 (setting [2]) it was 60%; at PKD1 (setting [3]), 1%. Moreover, the “residual kinase activity PKC zeta” value at PKC zeta stood at 90%. Besides, at EPH A2, the “residual kinase activity EPH A2” value amounted to 87%. Besides, at PKD1, the “residual kinase activity PKD1” value came out at 7%.

For the compound `O=C(NCCCNc1nc(Nc2cccc(F)c2)ncc1C1CC1)C1CCC1` [Example 23, Cyclobutanecarboxylic acid {3-[5-cyclopropyl-2-(3-fluoro-phenylamino)-pyrimidin-4-ylamino]-propyl}-amide], the remaining activity at 10 µM stood at 89% at PKC zeta (setting [1]); 89% at PKC zeta (setting [4]); 71% on EPH A2 (setting [2]); 71% on EPH A2 (setting [5]); 53% at PKD1 (setting [3]); 53% on PKD1 (setting [6]). Besides, the “residual kinase activity PKC zeta” value at PKC zeta was 99%. The values for the remaining activity at 1 µM on PKC zeta (setting [4]), at EPH A2 (setting [5]) and on PKD1 (setting [6]) were 99%, 71% and 68%, respectively. In addition, at EPH A2, the “residual kinase activity EPH A2” value worked out at 71%. Further, the “residual kinase activity PKD1” value at PKD1 is 68%.

Turning to `O=C(NCCCNc1nc(Nc2cccc(N3CCCC3=O)c2)ncc1C1CC1)c1cccs1` [Example 47, Thiophene-2-carboxylic acid (3-{5-cyclopropyl-2-[3-(2-oxo-pyrrolidin-1-yl)-phenylamino]-pyrimidin-4-ylamino}-propyl)-amide. Hydrochloride salt], the remaining activity at 1 µM on PKC zeta (setting [4]) amounted to 80%; at EPH A2 (setting [5]), 47%; on PKD1 (setting [6]), 57%. The remaining activity at 10 µM at PKC zeta (setting [4]) was found to be 78%; at EPH A2 (setting [5]), 76%; at PKD1 (setting [6]), 52%.

In the case of `O=C(NCCCNc1nc(Nc2cccnc2)ncc1C1CC1)c1cccs1` [Example 50, Thiophene-2-carboxylic acid {3-[5-cyclopropyl-2-(pyridin-3-ylamino)-pyrimidin-4-ylamino]-propyl}-amide], the remaining activity at 1 µM at PKC zeta (setting [4]) was 84%; on EPH A2 (setting [5]), 88%; at PKD1 (setting [6]) it was 60%. Further, the remaining activity at 10 µM was 73% at PKC zeta (setting [4]), 73% on EPH A2 (setting [5]) and 36% at PKD1 (setting [6]).
